Experimental data reported in patent US20070093449A1, “Novel IV formulation of tipifarnib” (priority 2005, published 2007).
Like-named read-outs stand apart in the source and are kept apart here.

Experiments:
[1] = Plasma pharmacokinetics of tipifarnib after oral, 2-hour i.v. and continuous i.v. administration in cancer patients; format: in vivo, human; settings: for systemic exposure (AUC0-10h) lower relative to 200 mg oral dose: Day 4, cohort 1 (3 subjects); for systemic exposure lower relative to 200 mg oral dose: cohort 2 (3 subjects); for bioavailability: oral, dose-normalized AUC0-10h, fed, read-out: mean absolute bioavailability of the oral tablet; for bioavailability / Tmax: 200 mg; for Tmax: po
Protocol: The objective of the first (dose-determination) phase of the study was to identify an intravenous regimen that was well tolerated. It was expected that this regimen would be equivalent to 50% -60% of a clinically relevant oral dose (200 mg), based on a prior pilot determination of absolute bioavailability in healthy male volunteers. A first cohort of 3 subjects received the following uninterrupted 4-day consecutive treatments of tipifarnib: 30 mg as a 2-hour intravenous infusion b.i.d. on Day 1-4, followed by 200 mg as oral administration b.i.d. on Day 5-8, followed by 60 mg per day as a continuous intravenous infusion on Day 9-12. Similarly, a second cohort of 3 subjects received similar 4-day regimens of tipifarnib: 60 mg as a 2-hour intravenous infusion b.i.d., followed by 200 mg as oral administration b.i.d., followed by 120 mg per day as a continuous intravenous infusion. There was no washout period between each of the 4-day oral or i.v. treatments described.
The second (i.v.-oral bridging) phase of the study was completed in separate group of patients. Systemic exposure to tipifarnib following the selected 2-hour and continuous intravenous regimens (from the previous dose-determination phase) was compared to exposure after a 200-mg b.i.d. oral regimen. The bridging phase was initiated when at least 2 subjects of the second cohort of the dose-determination phase were observed without DLT until Day 21. A total of 24 subjects were randomly assigned in a 1:1 ratio to one of two treatment sequences at the chosen intravenous regimens, in order to account for potential sequence-effects.
Sequence 1: 100 mg b.i.d. administered as a 2-hour intravenous infusion on Days 1-4, followed by 200 mg oral tablets b.i.d. on Days 5-8, then 200 mg/day administered as a continuous 4-day intravenous infusion on Days 9-12.
Sequence 2: 200 mg/day administered as a continuous 4-day intravenous infusion on Days 1-4, followed by 200 mg oral tablets b.i.d. on Days 5-8, then 100 mg b.i.d. administered as a 2-hour intravenous infusion on Days 9-12.
In both the dose-determination and the bridging phases, pharmacokinetic sampling was performed during a 10-hour period from the start of the morning dose on Day 4 of each treatment. Whole blood samples were taken immediately before, and 0.5, 1, 2, 3, 4, 6, 8, and 10 hours after oral administration. For 2-hour intravenous infusion, blood samples were taken immediately before, and 1, 2 (i.e. just before the end of the infusion), 2.25, 3, 4, 6, 8, and 10 hours after dosing. Blood samples were taken immediately before, and 2, 4, 6, 8, and 10 hours after the start of the continuous intravenous infusion.
A minimum of 7 mL of blood for each PK sample was collected. Whole blood samples were immediately placed on ice and centrifuged within 2 hours after collection (10 min, 1000×g). Separated plasma was frozen immediately at ≦−18° C. until assayed.
Plasma samples were thawed at room temperature, and individual sample was analyzed for tipifarnib using a previous published method. To 1-ml aliquots of human plasma, 200 ng of the internal standard (R121550, a structural analog) was spiked. After adding 1 ml of NaOH (0.1M), the samples were extracted twice with 4 ml of heptane containing 10% of isoamylalcohol. The combined organic phases were back-extracted with 2 ml of HCl (2M). After alkalization with concentrated ammonia, the aqueous phase was extracted once with 5 ml of heptane containing 5% of isoamylalcohol. This extract was evaporated under nitrogen at 65° C. and the residue dissolved in 100 microliters of injection solvent (Ammoniumacetate 0.01M/acetonitile/methanol; 50/25/25). A 15 μl extract was injected into an HPLC with UV detection (Agilent) at a wavelength of 240 nm. Separation was performed on a 10 cm×4.6 mm chromatographic column, packed with 3 μm C 18 BDS-Hypersil (Alltech). […]

[2] = tested on: plasma proteins; assay: Tipifarnib protein binding analysis, equilibrium dialysis of patient plasma (ex vivo); format: in vitro ADME, human
Protocol: Tipifarnib was specifically labeled with [^14C] at the asymmetric carbon atom. A 7-mL blood sample was taken from 24 patients at 4 hours after the start of the continuous intravenous infusion of tipifarnib on Day 4. The plasma samples were fortified with [^14C]-tipifarnib at 500 ng/ml. The fortified plasma samples were subjected to equilibrium dialysis against a 0.067 M phosphate buffer, pH 7.17 at 37° C. for 4 hours in a Dianorm system with identical macro-1 Teflon cells and Diachema 10.17 dialysis membranes (MW cut-off 10,000). Radioactivity levels were measured in duplicate 100-μl aliquots of the fortified plasma before and after equilibrium dialysis, and in 1000-μl duplicate aliquots of the contents of buffer compartments of the dialysis cells admixed with methanol after dialysis in a Packard Tri-Carb 1900 TR liquid scintillation spectrometer. The total protein concentration was determined with a colorimetric biureet method, kit Roche Diagnostics 1929917. The albumin concentration was determined with a colorimetric bromocresol green method kit Roche Diagnostics 1970909. The α1-acid glycoprotein concentration was determined with an immuno-turbidimetric method, kit Roche Diagnostics 1557602. All these tests were performed on a Roche Hitachi Modular analyser. […]

[3] = tested on: plasma proteins; assay: In vitro plasma protein binding, plasma from 5 healthy men; format: in vitro ADME, human
Source text: The value of the plasma protein binding of tipifarnib from the ex vivo measurement on cancer subjects in this trial is very close to that (99.22% bound) obtained from an in vitro experiment with the plasma samples from 5 healthy men. […]

[4] = Clinical assessment: toxicity (CTC version 2.0), dose-limiting toxicity; format: in vivo, human
Source text: The second and third subjects in the cohort were to be started only when the first subject completed the first intravenous and the oral treatment (i.e., 8-day period) without a dose-limiting toxicity (DLT). If a DLT occurred in 1 of 3 subjects of either the first or the second cohort, 3 supplementary subjects were to be added to that cohort. If more than 1 subject experienced DLT (either in the first 3 subjects or in the extended cohort of 6 subjects), dose escalation was to be terminated, and other subjects in that cohort had to complete their therapy at the same dose.
(§1) Complete patient history was taken, and a physical examination (including vital signs), hematological tests, and clinical chemistry tests were performed at baseline and during treatment. To assess cardiovascular safety, twelve-lead E.C.G.s were recorded at screening, during Cycle 1 and at the end of therapy. Although objective tumor response was not the primary objective of this study, an attempt was made to obtain appropriate measurements to assess response. All adverse events and clinically relevant laboratory abnormalities were graded according to Common Toxicity Criteria (CTC version 2.0)

[5] = tested on: advanced solid tumor; assay: Clinical assessment: efficacy / tumor response; format: in vivo, human
Protocol: as §1

[6] = Solubility and hydrolytic stability of tipifarnib in water; format: physicochemical
Protocol: Tipifarnib is a base with very good water solubility at acidic pH. It hydrolyzes to R110127, wherein the amine functionality is replaced by a hydroxy functionality. […] R110127 has the following structure: [drawing 2]
[…] is added to Formulation 1 to solubilize tipifarnib when it is reconstituted with Formulation 2. The pH value of the reconstituted solution is ˜4.5. At this pH value tipifarnib precipitates if no Hydroxypropyl-β-cyclodextrin is present. The risk of local irritation during infusion into a peripheral vein (arm) is at an acceptable level at this pH value.

[7] = oral 50- to 500-mg b.i.d.; cited from earlier work
[8] = cited from earlier work
[9] = oral administration, cited from earlier work
[10] = molecular target: human farnesyltransferase (FTase) (Homo sapiens, UniProt P49354+P49356); settings: in vitro and in vivo; cited from earlier work
[11] = tested on: human hepatocytes; settings: in vitro; cited from earlier work
[12] = molecular target: CYP3A4 (Homo sapiens, UniProt P08684); settings: compared to CYP2C19, CYP2A6, CYP2D6, CYP2C8/9/10; cited from earlier work
[13] = 2-hour i.v. infusion 100 mg b.i.d. versus oral 200 mg b.i.d.

Sequence of CYP3A4 (P08684 whole entry, the tested form may be a part): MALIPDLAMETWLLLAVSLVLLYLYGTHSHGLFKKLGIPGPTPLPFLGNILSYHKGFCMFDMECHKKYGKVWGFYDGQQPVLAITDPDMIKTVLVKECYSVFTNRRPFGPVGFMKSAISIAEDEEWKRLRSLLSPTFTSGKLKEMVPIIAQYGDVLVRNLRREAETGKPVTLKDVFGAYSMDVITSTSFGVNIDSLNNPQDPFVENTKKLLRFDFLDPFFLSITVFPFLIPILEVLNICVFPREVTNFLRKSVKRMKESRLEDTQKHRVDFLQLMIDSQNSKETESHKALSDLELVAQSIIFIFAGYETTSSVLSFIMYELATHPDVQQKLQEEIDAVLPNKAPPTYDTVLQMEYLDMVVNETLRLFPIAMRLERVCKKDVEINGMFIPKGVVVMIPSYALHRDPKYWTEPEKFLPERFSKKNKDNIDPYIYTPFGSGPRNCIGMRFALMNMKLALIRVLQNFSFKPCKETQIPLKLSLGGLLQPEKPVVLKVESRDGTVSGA

- systemic exposure (AUC0-10h) lower relative to 200 mg oral dose ([1]; 30 mg b.i.d. 2-hour intravenous infusion): approximately 64%
- systemic exposure lower relative to 200 mg oral dose ([1]; 60 mg b.i.d. 2-hour intravenous infusion): approximately 47%
- systemic exposure (AUC0-10h) lower relative to 200 mg oral dose ([1]; 60 mg per day continuous intravenous infusion): ~59%
- systemic exposure lower relative to 200 mg oral dose ([1]; 120 mg per day continuous infusion): ~46%
- AUC0-10h higher than after oral administration [1, 13]: 19.3%
- Cmax higher than after oral administration [1, 13]: 48.0%
- bioavailability ([1]; human, plasma, oral versus 2-hour i.v.): 46.3%
- bioavailability ([1]; human, plasma, oral versus continuous intravenous infusion): 40.9%
- Tmax ([1]; human, plasma, oral 200 mg b.i.d. for 4 days, read-out: time of maximum plasma concentration (tmax)): ~2 h
- Tmax ([1]; human, plasma, oral 200 mg b.i.d., 29 subjects, read-out: range of tmax): 0.5 to 3 h
- AUC(0-t) ([1]; human, plasma, oral 200 mg b.i.d., 2-hour i.v. 100 mg b.i.d., continuous i.v. 200 mg/day, read-out: range of mean AUC0-10h values across the 3 treatments): 3990 to 4490 ng·h/mL
- AUC(0-t) ([1]; human, plasma, oral 200 mg b.i.d., Day 4, n=24, read-out: arithmetic mean AUC0-10h (±SD)): 3990 ± 1670 ng·h/mL
- Cmax ([1]; human, plasma, oral 200 mg b.i.d., Day 4, n=24, read-out: arithmetic mean Cmax (±SD)): 994 ± 487 ng/mL
- arithmetic mean AUC0-10h (±SD) ([1]; oral 200 mg b.i.d., Day 4, n=24): 3990 ng·h/mL
- mean free (unbound) fraction ([2]; plasma drawn 4 hours after start of continuous i.v. infusion, Day 4): 0.62%
- fraction unbound at 4 h, 1000 ng/mL ([3]; male, human, pH 7.17, blank plasma fortified with 14C-tipifarnib at 1000 ng/mL, read-out: plasma protein binding (bound) (converted)): 0.0078
- water solubility ([6]; acidic pH): very good
- solubility in reconstituted solution ([6]; pH ~4.5, without hydroxypropyl-β-cyclodextrin): precipitates
Compound: Cn1cncc1[C@@](N)(c1ccc(Cl)cc1)c1ccc2c(c1)c(-c1cccc(Cl)c1)cc(=O)n2C [tipifarnib]
- dependence of unbound fraction on total drug plasma concentration ([2]; range 211 ng/mL to 812 ng/mL): independent of total drug plasma concentration
- dependence of in vitro plasma protein binding on total tipifarnib concentration ([3]; range 100 to 5000 ng/mL): independent of the total tipifarnib concentrations
- febrile neutropenia, subjects ([4]; 1 subject): 3%
- Grade 3 or 4 drug-related neutropenia, patients ([4]; 9/30 patients): 30%
- phlebitis ([4]; IV bolus via peripheral venous access, not observed via central vein): 3 subjects
- dose limiting toxicity ([4]; cohort 1: 30 mg b.i.d. 2-hour i.v., 60 mg per day continuous i.v.): No dose limiting toxicity
- dose limiting toxicity (DLT) ([4]; cohort 2: 60 mg b.i.d. 2-hour i.v., 120 mg per day continuous i.v.): no DLT was observed
- adverse events associated with intravenous administration ([4]; intravenous tipifarnib): No unusual adverse events
- drug-related anorexia ([4]; mainly grade 1): 20%
- drug-related diarrhea ([4]; mainly grade 1): 13%
- drug-related fatigue ([4]; mainly grade 1): 60%
- drug-related nausea ([4]; mainly grade 1): 40%
- drug-related vomiting ([4]; mainly grade 1): 17%
- objective tumor responses ([5]; 31 subjects evaluable): No objective tumor responses were observed
- stable disease for at least 6 months ([5]; 31 subjects evaluable): 14 subjects
- duration of hematological improvement (durable increase in hemoglobin) ([5]; one subject with MDS): 8 months
- rate of hydrolytic degradation to R110127 ([6]; aqueous): lowest at acidic condition but still very fast
- peak concentration range [7]: 68 to 1458 ng/mL
- mean AUC0-10h ([8]; 150 mg orally twice daily): 2495 ng·h/mL
- mean Cmax ([8]; 150 mg orally twice daily): 443 ng/mL
- mean AUC0-10h ([8]; 300 mg orally twice daily): 4674 ng·h/mL
- mean Cmax ([8]; 300 mg orally twice daily): 974 ng/mL
- concentrations of unchanged tipifarnib lower than total radioactivity concentrations ([9]; deproteinized samples): approximately 8 times
- concentrations of unchanged tipifarnib lower than total radioactivity concentrations ([9]; nonprecipitated samples): 42 times
- oral dose recovered in faeces as tipifarnib [9]: less than 7%
- unchanged drug excreted in the urine [9]: No unchanged drug was excreted in the urine
- inhibition of human farnesyltransferase (FTase) [10]: potent and selective nonpeptidomimetic competitive inhibitor
- metabolism in human hepatocytes [11]: undergoes direct glucoronidation
- CYP450 metabolic pathway [12]: CYP3A4 was a predominant metabolic pathway
